# From the supplement of paper PMC10307832
# Assays:
# Test in all cases: relative viability (nuclei count vs DMSO), 5 days (fraction); higher = more cells survive
# [1] = test system: A549
# In short: (§1)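 After 5 days of treatment, lung cancer cells in 1536-well plates were fixed and stained in a single step (final 0.05% Triton X-100, 1% formaldehyde, 1 ug/ml Hoechst) and their nuclei counted on 4× images. Treatment had been applied by pin tool the day after seeding as one drug alone or as a fixed anchor-drug dose with five library-drug doses (not always all listed) in √10 steps. Relative viability is the nuclei count of treated wells divided by that of vehicle wells, and values are medians of duplicate plates.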
# [2] = test system: Calu-6
# In short: as §1
# [3] = test system: EBC-1
# In short: as §1
# [4] = test system: EMC-BAC-2
# In short: as §1
# [5] = test system: HCC-366
# In short: as §1
# [6] = test system: HCC-78
# In short: as §1
# [7] = test system: IA-LM
# In short: as §1
# [8] = test system: LCLC-97TM1
# In short: as §1
# [9] = test system: NCI-H1299
# In short: as §1
# [10] = test system: NCI-H1703
# In short: as §1
compound,measurement,setting,value
Cc1csc(=NC2CCCCC2)n1/N=C/c1ccc(O)c(O)c1O [MIM1] + C[C@@H](Oc1cc(-c2cnn(C3CCNCC3)c2)cnc1N)c1c(Cl)ccc(F)c1Cl [Crizotinib] (partner 1 µM),relative viability,[1]; first compound 0.2 µM,0.709
same,relative viability,[1]; first compound 0.6325 µM,0.715
same,relative viability,[1]; first compound 2 µM,0.762
same,relative viability,[1]; first compound 6.325 µM,0.402
same,relative viability,[1]; first compound 20 µM,0.227
same,relative viability,[2]; first compound 0.2 µM,0.785
same,relative viability,[2]; first compound 0.6325 µM,0.826
same,relative viability,[2]; first compound 2 µM,0.696
same,relative viability,[2]; first compound 6.325 µM,0.36
same,relative viability,[2]; first compound 20 µM,0.186
same,relative viability,[3]; first compound 0.2 µM,0.207
same,relative viability,[3]; first compound 0.6325 µM,0.196
same,relative viability,[3]; first compound 2 µM,0.195
same,relative viability,[3]; first compound 6.325 µM,0.196
same,relative viability,[3]; first compound 20 µM,0.227
same,relative viability,[4]; first compound 0.2 µM,0.708
same,relative viability,[4]; first compound 0.6325 µM,0.774
same,relative viability,[4]; first compound 2 µM,0.784
same,relative viability,[4]; first compound 6.325 µM,0.628
same,relative viability,[4]; first compound 20 µM,0.196
same,relative viability,[5]; first compound 0.2 µM,0.552
same,relative viability,[5]; first compound 0.6325 µM,0.483
same,relative viability,[5]; first compound 2 µM,0.326
same,relative viability,[5]; first compound 6.325 µM,0.425
same,relative viability,[5]; first compound 20 µM,0.0362
same,relative viability,[6]; first compound 0.2 µM,0.322
same,relative viability,[6]; first compound 0.6325 µM,0.324
same,relative viability,[6]; first compound 2 µM,0.309
same,relative viability,[6]; first compound 6.325 µM,0.318
same,relative viability,[6]; first compound 20 µM,0.735
same,relative viability,[7]; first compound 0.2 µM,0.697
same,relative viability,[7]; first compound 0.6325 µM,0.789
same,relative viability,[7]; first compound 2 µM,0.773
same,relative viability,[7]; first compound 6.325 µM,0.443
same,relative viability,[7]; first compound 20 µM,0.204
same,relative viability,[8]; first compound 0.2 µM,0.327
same,relative viability,[8]; first compound 0.6325 µM,0.38
same,relative viability,[8]; first compound 2 µM,0.441
same,relative viability,[8]; first compound 6.325 µM,0.214
same,relative viability,[8]; first compound 20 µM,0.12
same,relative viability,[9]; first compound 0.2 µM,0.857
same,relative viability,[9]; first compound 0.6325 µM,0.975
same,relative viability,[9]; first compound 2 µM,0.975
same,relative viability,[9]; first compound 6.325 µM,0.966
same,relative viability,[9]; first compound 20 µM,0.904
same,relative viability,[10]; first compound 0.2 µM,0.534
same,relative viability,[10]; first compound 0.6325 µM,0.482
same,relative viability,[10]; first compound 2 µM,0.455
same,relative viability,[10]; first compound 6.325 µM,0.175
same,relative viability,[10]; first compound 20 µM,0.127
Cc1cn(-c2cc(NC(=O)c3ccc(C)c(Nc4nccc(-c5cccnc5)n4)c3)cc(C(F)(F)F)c2)cn1 [Nilotinib] + CC(C)C[C@H](NC(=O)[C@H](Cc1ccccc1)NC(=O)c1cnccn1)B(O)O [Bortezomib] (partner 0.002 µM),relative viability,[2]; first compound 0.001 µM,0.934
same,relative viability,[2]; first compound 0.003162 µM,1.02
same,relative viability,[2]; first compound 0.01 µM,0.929
same,relative viability,[2]; first compound 0.03162 µM,1.02
same,relative viability,[2]; first compound 0.1 µM,1.01
same,relative viability,[3]; first compound 0.001 µM,0.488
same,relative viability,[3]; first compound 0.003162 µM,0.55
same,relative viability,[3]; first compound 0.01 µM,0.417
same,relative viability,[3]; first compound 0.03162 µM,0.437
same,relative viability,[3]; first compound 0.1 µM,0.241
same,relative viability,[4]; first compound 0.001 µM,1.03
same,relative viability,[4]; first compound 0.003162 µM,1.08
same,relative viability,[4]; first compound 0.01 µM,1.09
same,relative viability,[4]; first compound 0.03162 µM,0.922
same,relative viability,[4]; first compound 0.1 µM,1.05
same,relative viability,[5]; first compound 0.001 µM,0.88
same,relative viability,[5]; first compound 0.003162 µM,1.74
same,relative viability,[5]; first compound 0.01 µM,1.35
same,relative viability,[5]; first compound 0.03162 µM,0.692
same,relative viability,[5]; first compound 0.1 µM,0.844
same,relative viability,[6]; first compound 0.001 µM,0.433
same,relative viability,[6]; first compound 0.003162 µM,0.514
same,relative viability,[6]; first compound 0.01 µM,0.654
same,relative viability,[6]; first compound 0.03162 µM,0.55
same,relative viability,[6]; first compound 0.1 µM,0.518
same,relative viability,[7]; first compound 0.001 µM,0.616
same,relative viability,[7]; first compound 0.003162 µM,0.698
same,relative viability,[7]; first compound 0.01 µM,0.685
same,relative viability,[7]; first compound 0.03162 µM,0.808
same,relative viability,[7]; first compound 0.1 µM,0.714
same,relative viability,[8]; first compound 0.001 µM,0.454
same,relative viability,[8]; first compound 0.003162 µM,0.158
same,relative viability,[8]; first compound 0.01 µM,0.946
same,relative viability,[8]; first compound 0.03162 µM,0.295
same,relative viability,[8]; first compound 0.1 µM,0.511
same,relative viability,[9]; first compound 0.003162 µM,1.07
same,relative viability,[9]; first compound 0.01 µM,1.05
same,relative viability,[9]; first compound 0.03162 µM,1.01
same,relative viability,[9]; first compound 0.1 µM,0.933
same,relative viability,[10]; first compound 0.001 µM,0.232
same,relative viability,[10]; first compound 0.003162 µM,0.208
same,relative viability,[10]; first compound 0.01 µM,0.148
same,relative viability,[10]; first compound 0.03162 µM,0.141
same,relative viability,[10]; first compound 0.1 µM,0.125
